From ChEMBL document CHEMBL1687942, “Benzimidazole inhibitors induce a DFG-out conformation of never in mitosis gene A-related kinase 2 (Nek2) without binding to the back pocket and reveal a nonlinear structure-activity relationship” (J Med Chem, 2011)
Active and inactive are the calls of the source. No cut-off for these calls is given here.

Columns and labels:
[1] = molecular target: T1, Serine/threonine-protein kinase PLK1 (Homo sapiens, UniProt P53350); test: Inhibition of polo-like kinase 1 activity
T1 sequence (P53350 whole entry): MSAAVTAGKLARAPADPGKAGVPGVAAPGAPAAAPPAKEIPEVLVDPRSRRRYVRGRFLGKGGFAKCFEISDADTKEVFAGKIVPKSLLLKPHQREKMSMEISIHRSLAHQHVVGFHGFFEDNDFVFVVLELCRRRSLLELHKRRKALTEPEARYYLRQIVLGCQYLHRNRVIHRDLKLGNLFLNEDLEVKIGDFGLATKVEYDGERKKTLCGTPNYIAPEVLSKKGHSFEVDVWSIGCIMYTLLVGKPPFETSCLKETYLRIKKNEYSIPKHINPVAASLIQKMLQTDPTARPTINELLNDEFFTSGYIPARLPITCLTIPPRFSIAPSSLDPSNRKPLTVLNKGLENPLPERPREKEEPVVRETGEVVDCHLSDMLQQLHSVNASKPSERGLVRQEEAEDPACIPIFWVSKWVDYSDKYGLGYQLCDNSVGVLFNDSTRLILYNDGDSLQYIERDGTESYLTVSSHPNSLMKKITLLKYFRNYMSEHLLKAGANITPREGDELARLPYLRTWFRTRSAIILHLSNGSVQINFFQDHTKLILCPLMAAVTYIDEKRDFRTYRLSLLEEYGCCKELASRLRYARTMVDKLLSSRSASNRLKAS

[2] = molecular target: T2, Serine/threonine-protein kinase Nek2 (Homo sapiens, UniProt P51955)
T2 sequence (P51955 whole entry): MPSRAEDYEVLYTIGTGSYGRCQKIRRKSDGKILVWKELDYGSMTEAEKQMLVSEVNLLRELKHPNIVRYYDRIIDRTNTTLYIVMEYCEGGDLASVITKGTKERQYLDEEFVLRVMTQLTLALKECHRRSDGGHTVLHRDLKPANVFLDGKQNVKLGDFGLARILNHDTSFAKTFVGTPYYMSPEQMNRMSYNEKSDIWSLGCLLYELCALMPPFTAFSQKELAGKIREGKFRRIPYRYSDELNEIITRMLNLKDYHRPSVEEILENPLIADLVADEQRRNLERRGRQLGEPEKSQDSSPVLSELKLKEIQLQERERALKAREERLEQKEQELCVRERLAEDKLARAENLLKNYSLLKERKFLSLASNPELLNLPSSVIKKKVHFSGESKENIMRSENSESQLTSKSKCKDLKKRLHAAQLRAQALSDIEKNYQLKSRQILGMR

[3] = molecular target: T3, Serine/threonine-protein kinase Nek2 (Homo sapiens) (UniProt P51955); test: Inhibition of NEK2 at 200 uM
T3 sequence (whole entry): T2 sequence (P51955 whole entry)

[4] = molecular target: T1, Serine/threonine-protein kinase PLK1; test: Inhibition of polo-like kinase 1 activity at 100 uM
[5] = molecular target: T2, Serine/threonine-protein kinase Nek2; test: Inhibition of NEK2 autophosphorylation preincubated with compound by DELFIA assay
[6] = molecular target: T2, Serine/threonine-protein kinase Nek2; test: Inhibition of NEK2 assessed as inhibition of substrate phosphorylation preincubated for 5 mins before addition of substrate by DELFIA assay
[7] = molecular target: T1, Serine/threonine-protein kinase PLK1; conditions: 200 uM
Description: Inhibition of polo-like kinase 1 activity at 200 uM

[8] = molecular target: Tyrosine-protein kinase ABL1 (Mus musculus) (UniProt P00520); test: Inhibition of mouse Abl at 2 uM
Chain of Tyrosine-protein kinase ABL1 (Mus musculus) (P00520 whole entry): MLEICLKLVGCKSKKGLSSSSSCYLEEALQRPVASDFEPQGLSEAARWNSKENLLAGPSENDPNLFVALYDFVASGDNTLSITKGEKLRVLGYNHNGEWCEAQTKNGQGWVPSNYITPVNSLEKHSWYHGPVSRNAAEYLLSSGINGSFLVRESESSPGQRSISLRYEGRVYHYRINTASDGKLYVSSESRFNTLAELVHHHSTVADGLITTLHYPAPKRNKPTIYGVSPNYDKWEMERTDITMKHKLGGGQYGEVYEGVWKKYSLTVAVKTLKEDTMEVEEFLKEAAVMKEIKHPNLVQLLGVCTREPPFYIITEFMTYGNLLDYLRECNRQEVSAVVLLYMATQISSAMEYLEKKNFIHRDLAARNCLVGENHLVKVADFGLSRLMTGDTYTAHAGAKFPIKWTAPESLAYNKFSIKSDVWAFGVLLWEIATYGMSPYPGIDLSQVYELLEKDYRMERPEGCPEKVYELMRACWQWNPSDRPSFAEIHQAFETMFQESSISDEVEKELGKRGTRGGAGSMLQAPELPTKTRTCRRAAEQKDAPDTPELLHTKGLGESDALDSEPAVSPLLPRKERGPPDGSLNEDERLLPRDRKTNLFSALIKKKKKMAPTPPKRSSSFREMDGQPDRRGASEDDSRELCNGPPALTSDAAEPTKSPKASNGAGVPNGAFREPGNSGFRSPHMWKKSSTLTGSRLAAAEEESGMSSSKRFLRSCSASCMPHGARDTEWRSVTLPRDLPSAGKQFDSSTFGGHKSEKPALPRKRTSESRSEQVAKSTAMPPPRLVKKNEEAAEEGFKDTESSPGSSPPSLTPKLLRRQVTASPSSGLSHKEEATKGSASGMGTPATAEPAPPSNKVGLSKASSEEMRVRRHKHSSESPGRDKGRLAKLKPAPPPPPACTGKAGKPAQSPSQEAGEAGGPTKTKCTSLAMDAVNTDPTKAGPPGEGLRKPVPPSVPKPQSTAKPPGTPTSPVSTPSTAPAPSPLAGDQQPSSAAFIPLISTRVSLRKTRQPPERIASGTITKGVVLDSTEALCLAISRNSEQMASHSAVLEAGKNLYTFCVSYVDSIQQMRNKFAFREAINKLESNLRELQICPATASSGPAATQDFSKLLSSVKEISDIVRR

[9] = Apparent permeability of the compound by PAMPA at pH 7.4

`COc1cc(-n2cnc3ccc(OC4CCN(C)CC4)cc32)sc1C(N)=O` gave an IC50 [1] of 1330 nM and an IC50 [2] of 64400 nM.
Work on `CC(Oc1cc(-n2cnc3ccc(OC4CCN(C)CC4)cc32)sc1C(N)=O)c1ccccc1` (racemic) yielded an IC50 [1] of 66 nM and an IC50 [2] of 6570 nM.
For `CC(Oc1cc(-n2cnc3ccccc32)sc1C(N)=O)c1ccccc1C(F)(F)F` (racemic), the IC50 [1] was < 9 nM and the IC50 [2] was > 50000 nM.
`CC(Oc1cc(-n2cnc3cc(OCCCN(C)C)ccc32)ccc1C(N)=O)c1ccccc1C(F)(F)F` (racemic) gave an IC50 [1] of 15200 nM and an IC50 [2] of 380 nM.
`CN1CCC(Oc2ccc3ncn(-c4cc(OCc5ccccc5)c(C(N)=O)s4)c3c2)CC1` gave an IC50 [1] of 69 nM and an IC50 [2] of 5430 nM.
For `CC(Oc1cc(-n2cnc3cc(OC4CCCCC4)ccc32)ccc1C(N)=O)c1ccccc1C(F)(F)F` (racemic), the inhibition [3] was “inactive” and the inhibition [4] was “inactive”.
With `CC(Oc1cc(-n2cnc3cc(OC4CCN(C5CC5)CC4)ccc32)ccc1C(N)=O)c1ccccc1C(F)(F)F` (racemic) the inhibition [4] was “inactive” and the IC50 [2] was 2560 nM.
With `CC(Oc1cc(-n2cnc3ccc(OC4CCN(C)CC4)cc32)sc1C(N)=O)c1ccccc1C(F)(F)F` (racemic) the IC50 [5] was 50 nM and the IC50 [6] was 200 nM.
With `C[C@H](Oc1cc(-n2cnc3cc(OC4CCN(C)CC4)ccc32)ccc1C(N)=O)c1ccccc1C(F)(F)F` the inhibition [7] was “inactive”.
For `CC(Oc1cc(-n2cnc3cc(OC4CCN(C)CC4)ccc32)ccc1C(N)=O)c1ccccc1C(F)(F)F` (racemic), the IC50 [1] was 87900 nM and the inhibition [8] was “Active”.
For `COc1cc(-n2cnc3ccccc32)sc1C(N)=O`, the IC50 [1] was 5310 nM and the IC50 [2] was 86000 nM.
With `CC(Oc1cc(-n2cnc3ccc(OC4CCN(C)CC4)cc32)ccc1C(N)=O)c1ccccc1C(F)(F)F` (racemic) the IC50 [1] was 190 nM and the IC50 [2] was 660 nM.
For `CN1CCC(Oc2ccc3ncn(-c4cc(OCc5ccccc5C(F)(F)F)c(C(N)=O)s4)c3c2)CC1`, the IC50 [1] was < 9 nM.
`C[C@@H](Oc1cc(-n2cnc3cc(OC4CCN(C)CC4)ccc32)ccc1C(N)=O)c1ccccc1C(F)(F)F` showed an IC50 [1] of 51300 nM and a Papp [9] of 33.4 ×10⁻⁶ cm/s.
